1 compound from publication PMC10982501, “Synthesis and biological evaluation of novel benzothiazole derivatives as potential anticancer and antiinflammatory agents” (Frontiers in Chemistry, 2024) can be followed below.

Series [1] concerns ERK. Briefly: Western blot, ERK phosphorylation. The format is cell-based, human. Conditions: A431 and A549 cells, 1, 5 and 10 μM, 2 h. The procedure: (§1) The A431 and A549 cells were cultured in 6-well plates (2×10^5 cells/well) for 2 h and treated with different concentrations of B7(1, 5, and 10 μM) or 4i (10 μM). The corresponding cells were collected, washed with PBS (P1020, Solarbio), and lysed with RIPA buffer (R0010, Solarbio) to extract the total proteins. The extracted protein was loaded, subjected to SDS-PAGE electrophoresis (Bio-Rad) ([Xu et al., 2023]), and then the protein was transferred to a PDVF membrane (IPVH00010, Millipore) and incubated in the corresponding Primary Antibody AKT (9272, Cell Signaling Technology), phospho-AKT (4058, Cell Signaling Technology), ERK (A4782, ABclonal Technology), phospho-ERK (AP0974, ABclonal Technology) and GAPDH (AB0037, Abways Technology) overnight. Then, the Primary Antibody was recovered and enzyme-labeled secondary antibodies Goat Anti-Rabbit IgG HRP (H + L) (A0208, Beyotime Technology) were used. Finally, Imaging was performed on a gel Imaging System (Bio-Rad, United States) using the Ultra-sensitive ECL Chemiluminescence Assay Kit (P0018AS, Beyotime Technology).

Series [2] relates to IL-6. In words: ELISA of IL-6 in LPS-stimulated RAW264.7 cells. The series is classed as cell-based, mouse. Conditions: 10 μM, RAW264.7, LPS, 24 h, vs blank control. As to the method: (§2) RAW264.7 cells were cultured in 6-well plates (2×10^5 cells/well) for 24 h and treated with 25 newly synthesized compounds (final concentration at 10 μM) for 30 min, respectively. Subsequently, the cells were stimulated with 1 μL of LPS (500 ng/mL) (L8880, Solarbio). After 24 h, the supernatant was collected and analyzed using an ELISA kit (EK206 and EK182, MULTISCIENCES) to quantify the levels of inflammatory cytokines IL-6 and TNF-α ([Li et al., 2021]).

The test system of series [3] is AKT. In words: Western blot, AKT phosphorylation. The format is cell-based, human. Conditions: A431 and A549 cells, 1, 5 and 10 μM, 2 h. As to the method:
as §1

Series [4] relates to A431 cells. Briefly: MTT cell proliferation assay, A431. Conditions: Homo sapiens, A-431, 48 h, read-out: IC50 (mean ± SD) A431. The format is cell-based, human. As to the method:
(§3) Beas-2b, A431, A549 and H1299 cells were cultured in 96-well plates (5 × 10^3 cells/well) for 16 h, respectively. Subsequently, positive compound 4i and 25 newly synthesized compounds were added at a final concentration of 10 μM or gradient concentrations (0.01, 0.1, 0.5, 1, 5 and 10 μM), co-incubated with the cells for 48 h. MTT (M8180, Solarbio) solutions (5 mg/mL) were then added and incubated for 4 h in the dark. Then, formazan crystals were dissolved with DMSO (D8371, Solarbio), followed by shaking on a shaker (DRAGONLAB, China) for 10 min. Finally, absorbance at 490 nm wavelength for each well was measured with Microplate reader (Molecular Devices, United States) ([Tang et al., 2020]; [Lee et al., 2021]). The results are expressed as mean ± SD from three independent experiments. Cells inhibition rates or IC50 values were calculated using GraphPad Prism 9.5.0.

In series [5] the test system is common anti-tumor receptor kinases. In words: Activity of common anti-tumor receptor kinases.
Series [6] relates to A549 cells. In words: Flow cytometry analysis of cell cycle, A549. Conditions: A549, 24 h. The format is cell-based, human. The procedure:
(§4) The A431 and A549 cells were cultured in 6-well plates (1×10^5 cells/mL) for 16 h. Subsequently, they were treated with different concentrations (1, 2 and 4 μM) of either B7 or 4i (4 μM) for 24 h. Cells were collected, mixed by adding 75% ethanol with shaking on a vortex shaker, and placed in the refrigerator at 4°C for overnight fixation. The cells were incubated with PI-Raze solution for 15 min at room temperature, protected from light, according to the instructions of BD Cycletest Plus DNA Reagent Kit (340242, BD), and detected by FACS Calibur flow cytometry ([Oh et al., 2023]), and subsequent data analysis was performed using FlowJo 10.6.2.

Series [7] relates to A549 cells. In words: Flow cytometry analysis of cell apoptosis, A549. The series is classed as cell-based, human. Conditions: A549, 1, 2 and 4 μM, 24 h. The procedure:
(§5) The A431 and A549 cells were cultured in 6-well plates (1×10^5 cells/mL) for 16 h. Subsequently, cells were treated with different concentrations (1, 2 and 4 μM) of either B7 or 4i for 24 h. Then, the cells were collected, washed, and stained with the FITC Annexin V Apoptosis Detection Kit I (556547, BD) ([Jiang et al., 2017]). Sample testing was performed using a FACS Calibur Flow Cytometer (BD, United States), and subsequent data analysis was performed using FlowJo 10.6.2.

For series [8], the system named is A431 cells. In words: Flow cytometry analysis of cell apoptosis, A431. The series is classed as cell-based, human. Conditions: A431, 1, 2 and 4 μM, 24 h. The procedure: as §5
The nature of series [9]: Oil-water partition coefficient (log P) measurement. The series is classed as physicochemical. Conditions: n-octanol/water, room temperature. The procedure:
The partition coefficient between n-octanol and water (log Po/w) is the classical descriptor for Lipophilicity ([Daina et al., 2017]). The test methodology followed previously published protocols ([Wang et al., 2021]). At room temperature, two large Erlenmeyer flasks were taken and filled with n-octanol and water, respectively. The flasks were placed in a constant temperature shaker at 150 rpm for 24 h to saturate the solvents. The mixtures were then transferred to separating funnels under normal pressure to obtain water-saturated n-octanol and n-octanol-saturated water for subsequent use. The target compound (2 mg) was accurately weighed and placed in a 2 mL brown volumetric flask. Anhydrous methanol was added to ultrasonically dissolve the compound, and the mixture was diluted to volume and thoroughly shaken to prepare a 1 mg/mL stock solution. The stock solution was further diluted to obtain 1, 1.5, 2, 2.5, 5 and 10 μg/mL reference solutions for construction of a standard curve using a UV-visible spectrophotometer. An excess amount of the analyte was dissolved in water-saturated n-octanol, and the mixture was shaken at 150 rpm for 24 h at constant temperature to obtain a saturated solution. The saturated solution was allowed to stand, centrifuged, and 1 mL of the supernatant was transferred to a 4 mL centrifuge tube. N-octanol saturated water (1 mL) was added, and the mixture was shaken at 150 rpm for 24 h at constant temperature. After standing for 8 h, the mixture was centrifuged. Appropriate amounts of the n-octanol phase before and after equilibration were diluted with methanol, and concentrations were determined from the standard curve to obtain C0 and C1. The concentration in the n-octanol saturated aqueous phase, Cw, was calculated as Cw = C0 - C1. Thus, log Po/w = […].

The subject of series [10] is TNF-α. In words: ELISA of TNF-α in LPS-stimulated RAW264.7 cells. The series is classed as cell-based, mouse. Conditions: 10 μM, RAW264.7, LPS, 24 h, vs blank control. As to the method:
as §2

For series [11], the system named is A431 cells. In words: Flow cytometry analysis of cell cycle, A431. The series is classed as cell-based, human. Conditions: A431, 24 h. The procedure: as §4
Series [12] concerns Beas-2b cells. In words: MTT cell proliferation and toxicity assay, Beas-2b. Conditions: Homo sapiens, BEAS-2B, 48 h, read-out: Beas-2b cells inhibition rate. The format is cell-based, human. As to the method:
as §3

The subject of series [13] is A431 cells. In words: Wound healing analysis of cell migration, A431. The format is cell-based, human. Conditions: A431, 4 μM, 48 h, compared to 4i. As to the method:
(§6) The A431 and A549 cells were cultured in 6-well plates (5×10^5 cells/well). When the cell confluency reached approximately 90%, used a sterile 10 μL pipette tip to create three parallel scratches evenly. Subsequently, rinsed with PBS to remove floating cells, and then treated with B7 and 4i at final concentrations of 4 μM. Captured images using a microscope camera system (Nikon, JPN) at 0 and 48 h post-treatment ([Xu et al., 2023]).

In series [14] the test system is A549 cells. In words: MTT cell proliferation assay, A549. The format is cell-based, human. Conditions: Homo sapiens, A549, 48 h, read-out: IC50 (mean ± SD) A549. The procedure:
as §3

For series [15], the system named is A549 cells. Briefly: Wound healing analysis of cell migration, A549. The series is classed as cell-based, human. Conditions: A549, 4 μM, 48 h, compared to 4i. The procedure: as §6
Series [16] concerns H1299 cells. In words: MTT cell proliferation assay, H1299. The series is classed as cell-based, human. Conditions: Homo sapiens, NCI-H1299, 48 h, read-out: IC50 (mean ± SD) H1299. As to the method:
as §3

Consider `O=[N+]([O-])c1ccc(CNc2nc3ccc(Cl)cc3s2)cc1` [B7, 6-chloro-N-(4-nitrobenzyl)benzo[d]thiazol-2-amine], for which the “ERK protein phosphorylation, in words” value in [1] is on record as “markedly inhibit”. Also, the “effect on IL-6 expression” value in series [2] is on record as “significant inhibitory effects”. Further, the “AKT protein phosphorylation, in words” value in [3] is given as “markedly inhibit”. In addition, the IC50 in series [4] was 1510 ± 200 nM; in [14], 960 ± 240 nM; in series [16] it was 1680 ± 120 nM. Moreover, the “impact on common anti-tumor receptor kinases, in words” value in series [5] is reported as “minimal impact”. The “cell cycle arrest, in words” value in [6] and in series [11] was “G2 phase cell cycle arrest effect” each time. In addition, the “apoptosis rate, in words” value in [7] and in [8] was “gradual increase in the apoptosis rate” each time. The compound also returned a logP in series [9] of 3.25 ± 0.24. Further, the “effect on TNF-α expression” value in series [10] is on record as “significant inhibitory effects”. In addition, the inhibition at 10 µM in series [12] amounted to 16.6 ± 1.36%. Also, in series [13], the “migration inhibitory effect, in words” value is recorded as “slightly surpassed that of 4i”. The “inhibitory effect on cell migration, in words” value in [15] is reported as “stronger inhibitory effect”.
